# Assay results: US12312359B2 (Vitae Pharmaceuticals, LLC, priority 2016, dated 2025)
# What was measured:
# [1] = system: human acute monocytic leukemia cell line MV-4-11; assay: Assay 2: cell proliferation assay (ATP quantitation, CellTiter-Glo), MV-4-11; format: cell-based; details: MV-4-11 cells
# Summary of the method: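 Read-out is CellTiter-Glo luminescence quantifying ATP. Compound exposure lasted 72 h at 37° C., 5% CO2, with 1.67×10^4 MV-4-11 cells per well in 10% FBS medium, alongside HL-60 toxicity-control cells.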
# [2] = molecular target: T1, biotinylated wild-type menin and MLL-AF9 fusion protein (menin/MLL binding) (Homo sapiens, UniProt O00255); assay: Assay 1: menin/MLL binding AlphaLISA assay, wild-type menin; details: Table 30; column head does not say wild-type or mutated menin
# T1 construct: made in house; host or cells: menin: E. coli; MLL-AF9-FLAG: HEK293 cells, used as cleared lysate
# T1 sequence (O00255 1-610): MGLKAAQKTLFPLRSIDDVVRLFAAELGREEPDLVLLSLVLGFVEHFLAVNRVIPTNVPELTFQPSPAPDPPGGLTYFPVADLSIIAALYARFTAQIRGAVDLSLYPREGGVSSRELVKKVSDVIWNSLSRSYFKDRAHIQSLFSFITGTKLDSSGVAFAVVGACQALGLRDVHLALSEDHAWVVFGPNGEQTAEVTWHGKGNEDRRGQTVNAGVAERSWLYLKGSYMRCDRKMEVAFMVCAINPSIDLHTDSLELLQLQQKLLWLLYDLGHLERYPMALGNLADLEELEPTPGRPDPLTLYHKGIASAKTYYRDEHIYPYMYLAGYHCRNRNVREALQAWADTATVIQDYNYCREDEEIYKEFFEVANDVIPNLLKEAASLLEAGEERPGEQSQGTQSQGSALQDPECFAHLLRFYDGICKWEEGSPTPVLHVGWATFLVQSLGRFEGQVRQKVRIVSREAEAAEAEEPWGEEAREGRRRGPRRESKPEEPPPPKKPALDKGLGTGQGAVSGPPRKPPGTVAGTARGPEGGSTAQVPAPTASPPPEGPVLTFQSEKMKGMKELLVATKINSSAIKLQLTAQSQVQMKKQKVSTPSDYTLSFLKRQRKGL
# Summary of the method: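 Compound was preincubated 30 min at room temperature with biotinylated menin (5 nM) and MLL-AF9-FLAG lysate from HEK293 cells, pH 7.4 buffer with 5% DMSO and DTT. Bead-based Alpha signal after 60 min with streptavidin donor and anti-FLAG acceptor beads; four-parameter logistic fit gave IC50.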
SMILES,"EC50 ([1]; Homo sapiens, MV4-11, 72 h) [nM]",IC50 [2] [nM],EC50 ([1]; 72 h) [nM]
"CC(C)n1nccc1-c1cc(F)ccc1Oc1cncnc1N1CCC2(CCN(Cc3ccc4[nH]c(=O)[nH]c4c3)C2)C1 (stereo not shown) [Example 237, 5-((7-(5-(4-fluoro-2-(1-isopropyl-1H-pyrazol-5-yl)phenoxy)pyrimidin-4-yl)-2,7-diazaspiro[4.4]nonan-2-yl)methyl)-1,3-dihydro-2H-benzo[d]imidazol-2-one]",< 100,< 100,–
"CC(CO)c1ccccc1-c1cc(F)ccc1Oc1cncnc1N1CCC2(CCN(Cc3ccc4[nH]c(=O)[nH]c4c3)C2)C1 (stereo not shown) [Example 69, 5-((7-(5-((5-fluoro-2′-(1-hydroxypropan-2-yl)-[1,1′-biphenyl]-2-yl)oxy)pyrimidin-4-yl)-2,7-diazaspiro[4.4]nonan-2-yl)methyl)-1H-benzo[d]imidazol-2(3H)-one]",< 100,< 100,–
"CC(=O)N[C@H]1CC[C@H](CCN2CC3(C2)CN(c2ncncc2Oc2ccc(F)cc2-c2ccc(C#N)cc2C2CC2)C3)CC1 [Example 143, N-((1r,4r)-4-(2-(6-(5-((4′-cyano-2′-cyclopropyl-5-fluoro-[1,1′-biphenyl]-2-yl)oxy)pyrimidin-4-yl)-2,6-diazaspiro[3.3]heptan-2-yl)ethyl)cyclohexyl) acetamide]",≥ 1000,< 100,–
"CC(C)c1ncncc1-c1cc(F)ccc1Oc1cncnc1N1CC2(CC(NCC3CCCCC3)CO2)C1 (stereo not shown) [Example 184, N-(cyclohexylmethyl)-2-(5-(4-fluoro-2-(4-isopropylpyrimidin-5-yl)phenoxy)pyrimidin-4-yl)-5-oxa-2-azaspiro[3.4]octan-7-amine]",100 to 1000,< 100,–
"CCN(C(=O)c1cc(F)ccc1Oc1cncnc1N1CCC2(CCN(Cc3ccc4[nH]c(=O)[nH]c4c3)C2)C1)C(C)C (single isomer, unassigned) [Example 2A, N-ethyl-5-fluoro-N-isopropyl-2-((4-(7-((2-oxo-2,3-dihydro-1H-benzo[d]imidazol-5-yl)methyl)-2,7-diazaspiro[4.4]nonan-2-yl)pyrimidin-5-yl)oxy)benzamide]",–,< 100,< 100
"CN(C(=O)c1cc(F)ccc1Oc1cncnc1N1CCC2(CCN(Cc3ccc4[nH]c(=O)[nH]c4c3)C2)C1)C1CC1 (stereo not shown) [Example 165, N-cyclopropyl-5-fluoro-N-methyl-2-((4-(7-((2-oxo-2,3-dihydro-1H-benzo[d]imidazol-5-yl)methyl)-2,7-diazaspiro[4.4]nonan-2-yl)pyrimidin-5-yl)oxy)benzamide]",≥ 1000,< 100,–
"CCC(O)(CC)c1cc(F)ccc1Oc1cncnc1N1CCC2(CCN(Cc3ccc4[nH]c(=O)[nH]c4c3)C2)C1 (stereo not shown) [Example 34, 5-((7-(5-(4-fluoro-2-(3-hydroxypentan-3-yl)phenoxy)pyrimidin-4-yl)-2,7-diazaspiro[4.4]nonan-2-yl)methyl)-1,3-dihydro-2H-benzo[d]imidazol-2-one]",≥ 1000,< 100,–
"CC(C)c1ccccc1-c1cc(F)ccc1Nc1cncnc1N1CC2(CN(CC3CCOCC3)C2)C1 [Example 15, N-(5-fluoro-2′-isopropyl-[1,1′-biphenyl]-2-yl)-4-(6-((tetrahydro-2H-pyran-4-yl)methyl)-2,6-diazaspiro[3.3]heptan-2-yl)pyrimidin-5-amine]",100 to 1000,< 100,–
"CC1(C)C(=O)Nc2cc(CN3CCC4(CCN(c5ncncc5Oc5ccc(F)cc5-c5cccnc5C5CC5)C4)C3)ccc21 (stereo not shown) [Example 179, 6-((7-(5-(2-(2-cyclopropylpyridin-3-yl)-4-fluorophenoxy)pyrimidin-4-yl)-2,7-diazaspiro[4.4]nonan-2-yl)methyl)-3,3-dimethylindolin-2-one]",< 100,< 100,–
"N#Cc1ccc(-c2cc(F)cc(F)c2Oc2cncnc2N2CCC3(CCN(Cc4ccc5[nH]c(=O)[nH]c5c4)C3)C2)c(C2CC2)c1 (stereo not shown) [Example 52, 2-cyclopropyl-3′,5′-difluoro-2′-((4-(7-((2-oxo-2,3-dihydro-1H-benzo[d]imidazol-5-yl)methyl)-2,7-diazaspiro[4.4]nonan-2-yl)pyrimidin-5-yl)oxy)-[1,1′-biphenyl]-4-carbonitrile]",–,< 100,< 100
"CC(C)N(C)C(=O)c1cc(F)ccc1Oc1cncnc1N1CCC2(CCN(Cc3ccc(N4CCOC4=O)cc3)C2)C1 (stereo not shown) [Example 62, 5-fluoro-N-isopropyl-N-methyl-2-((4-(7-(4-(2-oxooxazolidin-3-yl)benzyl)-2,7-diazaspiro[4.4]nonan-2-yl)pyrimidin-5-yl)oxy)benzamide]",–,< 100,100 to 1000
"CC(C)c1ncncc1-c1cc(F)ccc1Oc1cncnc1N1CC2(CN(CC3CCCC(F)(F)C3)C2)C1 (stereo not shown) [Example 232, 2-((3,3-difluorocyclohexyl)methyl)-6-(5-(4-fluoro-2-(4-isopropylpyrimidin-5-yl)phenoxy)pyrimidin-4-yl)-2,6-diazaspiro[3.3] heptane]",< 100,< 100,–
"CN(C)C(=O)c1ccc(-c2cc(F)ccc2Oc2cncnc2N2CCC3(CCN(Cc4ccc5[nH]c(=O)[nH]c5c4)C3)C2)c(C2CC2)c1 (stereo not shown) [Example 45, 2-cyclopropyl-5′-fluoro-N,N-dimethyl-2′-((4-(7-((2-oxo-2,3-dihydro-1H-benzo[d]imidazol-5-yl)methyl)-2,7-diazaspiro[4.4]nonan-2-yl)pyrimidin-5-yl)oxy)-[1,1′-biphenyl]-4-carboxamide]",< 100,< 100,–
"CC(C)N(C)S(=O)(=O)c1cc(F)ccc1Oc1cncnc1N1CCC2(CCN(Cc3ccc4[nH]c(=O)[nH]c4c3)C2)C1 (stereo not shown) [Example 222, 5-fluoro-N-isopropyl-N-methyl-2-((4-(7-((2-oxo-2,3-dihydro-1H-benzo[d]imidazol-5-yl)methyl)-2,7-diazaspiro[4.4]nonan-2-yl)pyrimidin-5-yl)oxy)benzenesulfon-amide]",≥ 1000,< 100,–

# The next lines start with the values.
"EC50 ([1]; Homo sapiens, MV4-11, 72 h) [nM]",IC50 [2] [nM],EC50 ([1]; 72 h) [nM],SMILES
< 100,< 100,–,"CC(C)N(C(=O)c1cc(F)ccc1Oc1cncnc1N1CC2(CCN(C[C@H]3CC[C@@H](NS(C)(=O)=O)CC3)CC2)C1)C(C)C [Example 6B, 5-fluoro-N,N-diisopropyl-2-((4-(7-(((1s,4s)-4-(methylsulfonamido)cyclohexyl)methyl)-2,7-diazaspiro[3.5]nonan-2-yl)pyrimidin-5-yl)oxy)benzamide]"
–,< 100,< 100,"CC(C)c1ncncc1-c1cc(F)ccc1Oc1cncnc1N1CCC2(CCN(Cc3ccc4[nH]c(=O)[nH]c4c3)C2)C1 (single isomer, unassigned) [Example 160B, 5-((7-(5-(4-fluoro-2-(4-isopropylpyrimidin-5-yl)phenoxy)pyrimidin-4-yl)-2,7-diazaspiro[4.4]nonan-2-yl)methyl)-1,3-dihydro-2H-benzo[d]imidazol-2-one]"
100 to 1000,< 100,–,"CC(C)N(C)C(=O)c1cc(F)ccc1Oc1cncnc1N1CC2(CCN(C[C@H]3CC[C@H](NS(C)(=O)=O)CC3)CC2)C1 [Example 93, 5-fluoro-N-isopropyl-N-methyl-2-((4-(7-(((1r,4r)-4-(methylsulfonamido)cyclohexyl)methyl)-2,7-diazaspiro [3.5]nonan-2-yl)pyrimidin-5-yl)oxy)benzamide]"
< 100,< 100,–,"CCN(C(=O)C(C)C)c1cc(F)ccc1Oc1cncnc1N1CC2(CN(C(=O)C3Cc4ccc(Br)cc4C3)C2)C1 (stereo not shown) [Example 120, N-(2-((4-(6-(5-bromo-2,3-dihydro-1H-indene-2-carbonyl)-2,6-diazaspiro [3.3]heptan-2-yl)pyrimidin-5-yl)oxy)-5-fluorophenyl)-N-ethylisobutyramide]"
< 100,< 100,–,"N#Cc1ccc(-c2cc(F)ccc2Oc2cncnc2N2CCC3(CCN(Cc4ccc5[nH]c(=O)[nH]c5c4)C3)C2)c(C2CC2)c1 (single isomer, unassigned) [Example 42A, 2-cyclopropyl-5′-fluoro-2′-((4-(7-((2-oxo-2,3-dihydro-1H-benzo[d]imidazol-5-yl)methyl)-2,7-diazaspiro[4.4]nonan-2-yl)pyrimidin-5-yl)oxy)-[1,1′-biphenyl]-4-carbonitrile]"
< 100,< 100,–,"CCN(C(=O)c1cc(F)ccc1Oc1cncnc1N1CCC2(CCN(Cc3ccc4c(c3)[nH]c(=O)n4CCO)C2)C1)C(C)C (single isomer, unassigned) [Example 4A, N-ethyl-5-fluoro-2-((4-(7-((1-(2-hydroxyethyl)-2-oxo-2,3-dihydro-1H-benzo[d]imidazol-5-yl)methyl)-2,7-diazaspiro[4.4]nonan-2-yl)pyrimidin-5-yl)oxy)-N-isopropylbenzamide]"
